The record followed here is ChEMBL document CHEMBL4033624, “Synthesis and evaluation of adenosine containing 3-arylfuran-2(5H)-ones as tyrosyl-tRNA synthetase inhibitors” (Eur J Med Chem, 2017).

Converted amounts (≈) assume the structure as drawn. A value given as a limit tells only on which side of the number the result lay.

Usually IC50 stands for the concentration at which inhibition is half-maximal. A lower IC50 goes with greater potency. Broadly, the MIC50 is the lowest concentration that inhibits either 50% of growth or 50% of the strains tested, depending on the study.

The nature of assay [1]: Inhibition of TyrRS (unknown origin) expressed in Escherichia coli using L-[ring-3,5-3H] tyrosine as substrate preincubated for 10 mins followed by substrate addition measured by liquid scintillation counting method. On the set-up: species or system Bacteria.
The next assay deals with Escherichia coli. The assay can be described thus: Antibacterial activity against Escherichia coli ATCC 8739 after 4 to 5 hrs by MTT assay. In kind it is functional. (Tetrazolium dyes change colour on reduction, which living cells bring about.)
A further assay concerns Pseudomonas aeruginosa. The assay can be described thus: Antibacterial activity against Pseudomonas aeruginosa ATCC 9027 after 4 to 5 hrs by MTT assay. It counts as functional.
Another assay concerns Staphylococcus aureus. The assay can be described thus: Antibacterial activity against Staphylococcus aureus ATCC 6538 after 4 to 5 hrs by MTT assay. In kind it is functional.

Compound `CC1(C)O[C@@H]2[C@H](O1)[C@@H](CNC(=O)COC1=C(c3ccccc3Cl)C(=O)OC1)O[C@H]2n1cnc2c(N)ncnc21` returned an IC50 in assay [1] of 24.3 µM. Moreover, the MIC50 in the assay with Escherichia coli is 15.8 µg/mL (≈ 28.4 µM); with Pseudomonas aeruginosa it was 25.6 µg/mL (≈ 46 µM); against Staphylococcus aureus, 30.3 µg/mL (≈ 54.4 µM).
On to `Nc1ncnc2c1ncn2[C@@H]1O[C@H](CNC(=O)COC2=C(c3ccc(F)cc3)C(=O)OC2)[C@@H](O)[C@H]1O`, for which the half-maximal inhibitory concentration (IC50) in assay [1] came to 31.7 µM. Moreover, the MIC50 in the assay on Escherichia coli turned out to be 39.2 µg/mL (≈ 78.3 µM); with Pseudomonas aeruginosa, 47.4 µg/mL (≈ 94.7 µM); with Staphylococcus aureus, 72.7 µg/mL (≈ 145 µM).
The matching figures for `CC1(C)O[C@@H]2[C@H](O1)[C@@H](CNC(=O)COC1=C(c3ccc(F)cc3)C(=O)OC1)O[C@H]2n1cnc2c(N)ncnc21`: above 100 µM, above 100 µg/mL, above 100 µg/mL and above 100 µg/mL.
In assay [1], `CC1(C)O[C@@H]2[C@H](O1)[C@@H](CNC(=O)COC1=C(c3ccc(Cl)cc3)C(=O)OC1)O[C@H]2n1cnc2c(N)ncnc21` yielded an IC50 of 22.7 µM. The figures for the MIC50 in the assay with Escherichia coli, with Pseudomonas aeruginosa and against Staphylococcus aureus were 20.3 µg/mL (≈ 36.4 µM), 21.4 µg/mL (≈ 38.4 µM) and 39.6 µg/mL (≈ 71.1 µM), respectively.
As to `CCOc1ccc(C2=C(OCC(=O)NC[C@H]3O[C@@H](n4cnc5c(N)ncnc54)[C@H](O)[C@@H]3O)COC2=O)cc1OCC`, the IC50 in assay [1] is above 100 µM. Besides, the MIC50 against Escherichia coli, against Pseudomonas aeruginosa and in the assay on Staphylococcus aureus was above 100 µg/mL in each case.
In assay [1], `Nc1ncnc2c1ncn2[C@@H]1O[C@H](CNC(=O)c2cccc(Br)c2)[C@@H](O)[C@H]1O` yielded a half-inhibitory concentration (IC50) of 94.5 µM. Further, the MIC50 in the assay with Escherichia coli, in the assay with Pseudomonas aeruginosa and with Staphylococcus aureus was above 100 µg/mL each time.
As for `COc1ccc(C2=C(OCC(=O)NC[C@H]3O[C@@H](n4cnc5c(N)ncnc54)[C@@H]4OC(C)(C)O[C@@H]43)COC2=O)cc1OC`, the IC50 in assay [1] is above 100 µM. Further, the MIC50 with Escherichia coli, against Pseudomonas aeruginosa and with Staphylococcus aureus was above 100 µg/mL in each case.
`Nc1ncnc2c1ncn2[C@@H]1O[C@H](CNC(=O)COC2=C(c3ccc(Br)cc3)C(=O)OC2)[C@@H](O)[C@H]1O` came in with an IC50 in assay [1] of 29.1 µM. For the same compound, the MIC50 in the assay on Escherichia coli was found to be 46.6 µg/mL (≈ 83 µM); in the assay with Pseudomonas aeruginosa it was 40.5 µg/mL (≈ 72.1 µM); in the assay with Staphylococcus aureus, 75.1 µg/mL (≈ 134 µM).
With `CC1(C)O[C@@H]2[C@H](O1)[C@@H](CNC(=O)COC1=C(c3ccc(Br)cc3)C(=O)OC1)O[C@H]2n1cnc2c(N)ncnc21`, in assay [1], the midpoint of inhibition, the IC50, lay at 92.6 µM. For the same compound, the MIC50 is 98.6 µg/mL (≈ 164 µM) in the assay with Escherichia coli, above 100 µg/mL against Pseudomonas aeruginosa and above 100 µg/mL in the assay with Staphylococcus aureus.
With `CC1(C)O[C@@H]2[C@H](O1)[C@@H](CNC(=O)c1cccc(Br)c1)O[C@H]2n1cnc2c(N)ncnc21`, the IC50 in assay [1] is above 100 µM. The MIC50 against Escherichia coli, against Pseudomonas aeruginosa and with Staphylococcus aureus was above 100 µg/mL throughout.
In assay [1], `COc1ccc(C2=C(OCC(=O)NC[C@H]3O[C@@H](n4cnc5c(N)ncnc54)[C@H](O)[C@@H]3O)COC2=O)cc1OC` showed an IC50 above 100 µM. For the same compound, the MIC50 with Escherichia coli, against Pseudomonas aeruginosa and in the assay with Staphylococcus aureus was above 100 µg/mL in each case.
The compound `CC1(C)O[C@@H]2[C@H](O1)[C@@H](CNC(=O)COC1=C(c3cccc(F)c3)C(=O)OC1)O[C@H]2n1cnc2c(N)ncnc21` yielded an IC50 in assay [1] of 56 µM. In addition, the MIC50 is 83.6 µg/mL (≈ 155 µM) in the assay with Escherichia coli, 82.8 µg/mL (≈ 153 µM) against Pseudomonas aeruginosa and above 100 µg/mL in the assay on Staphylococcus aureus.
As to `CCOc1ccc(C2=C(OCC(=O)NC[C@H]3O[C@@H](n4cnc5c(N)ncnc54)[C@@H]4OC(C)(C)O[C@@H]43)COC2=O)cc1OCC`, the IC50 in assay [1] is above 100 µM. Besides, the MIC50 against Escherichia coli, against Pseudomonas aeruginosa and in the assay on Staphylococcus aureus was above 100 µg/mL in each case.
Regarding `CC1(C)O[C@@H]2[C@H](O1)[C@@H](CNC(=O)COC1=C(c3ccc(Cl)cc3Cl)C(=O)OC1)O[C@H]2n1cnc2c(N)ncnc21`, the IC50 in assay [1] came out at 83.8 µM. Besides, the MIC50 against Escherichia coli is above 100 µg/mL; in the assay on Pseudomonas aeruginosa it was 90.9 µg/mL (≈ 154 µM); against Staphylococcus aureus it was above 100 µg/mL.
As for `CC1(C)O[C@@H]2[C@H](O1)[C@@H](CNC(=O)COC1=C(c3ccc(Cl)c(Cl)c3)C(=O)OC1)O[C@H]2n1cnc2c(N)ncnc21`, half-maximal inhibition in assay [1] (IC50) required 33.4 µM. Moreover, the MIC50 in the assay on Escherichia coli was 60.2 µg/mL (≈ 102 µM); with Pseudomonas aeruginosa, 63.7 µg/mL (≈ 108 µM); against Staphylococcus aureus, 90.7 µg/mL (≈ 153 µM).
The corresponding values for `Nc1ncnc2c1ncn2[C@@H]1O[C@H](CNC(=O)COC2=C(c3ccc(Cl)cc3Cl)C(=O)OC2)[C@@H](O)[C@H]1O` are 26.1 µM, 29.4 µg/mL (≈ 53.3 µM), 33.6 µg/mL (≈ 60.9 µM) and 55.4 µg/mL (≈ 100 µM).
For `O=C(O)c1cn(C2CC2)c2cc(N3CCNCC3)c(F)cc2c1=O` [CIPROFLOXACIN], the MIC50 against Escherichia coli was 0.1 µg/mL (≈ 0.302 µM); in the assay with Pseudomonas aeruginosa it was 0.64 µg/mL (≈ 1.93 µM).
Consider `CC1(C)S[C@@H]2[C@H](NC(=O)Cc3ccccc3)C(=O)N2[C@H]1C(=O)[O-].[Na+]` [PENICILLIN G SODIUM], for which, in the assay with Staphylococcus aureus, the MIC50 came out at 0.57 µg/mL.
